Drawing on patent US12202818B2, “Compounds and methods for CD73 modulation and indications therefor” (Opna Bio SA, priority 2020, dated 2025), this text covers IC50 for 18 molecules.

Experiment [1] addresses T1, Human CD73 (amino acid residues 27-549) (Homo sapiens, UniProt P21589).
T1 construct: Human CD73 (amino acid residues 27-549); His tag (N); made in house; host or cells: E. coli
T1 sequence (P21589 27-549): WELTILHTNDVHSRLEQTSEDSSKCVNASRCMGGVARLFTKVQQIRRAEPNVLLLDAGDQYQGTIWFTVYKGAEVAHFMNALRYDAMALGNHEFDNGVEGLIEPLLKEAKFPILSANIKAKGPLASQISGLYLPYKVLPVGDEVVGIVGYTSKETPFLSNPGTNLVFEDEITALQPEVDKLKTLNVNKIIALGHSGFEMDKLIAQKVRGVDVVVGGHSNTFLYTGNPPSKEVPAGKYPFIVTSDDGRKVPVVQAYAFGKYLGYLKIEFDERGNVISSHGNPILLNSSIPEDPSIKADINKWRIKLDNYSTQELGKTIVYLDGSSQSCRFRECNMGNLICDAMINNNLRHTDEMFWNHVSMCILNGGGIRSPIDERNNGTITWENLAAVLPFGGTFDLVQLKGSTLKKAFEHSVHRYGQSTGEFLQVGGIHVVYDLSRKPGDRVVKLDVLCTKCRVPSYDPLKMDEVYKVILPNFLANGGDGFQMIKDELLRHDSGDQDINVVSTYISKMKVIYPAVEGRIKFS
Briefly: CD73 enzymatic assay (luciferase-based indirect assay, CellTiter-Glo). In kind it is biochemical. Conditions: 0.4 nM CD73, 150 μM AMP, 1 hour at room temperature. The method, then: CD73 enzymatic activity was measured in a luciferase-based indirect assay using CellTiter-Glo® system from Promega. The luciferase reaction in the presence of ATP is inhibited by AMP, a primary substrate of CD73. Addition of CD73 enzyme to the reaction converts AMP to adenosine, and release the inhibition, producing a luminescent signal. Inhibition of CD73 leads to the decrease of this luminescent signal.
Human CD73 (amino acid residues 27-549) with N-Terminal His tag was purified in E. coli. All the assay components were prepared in 50 mM HEPEs buffer (pH 7.4) with 0.01% Tween-20. The CD73 enzymatic assay was performed using 0.4 nM CD73 and 150 μM AMP. 9.5 μL of CD73 protein and 9.5 μL of AMP were added to the wells of a 384 well plate containing lpL of various concentrations of test compound or DMSO vehicle and incubated for 1 hour at room temperature. 16 wells containing CD73, AMP and 5% DMSO served as high control. 16 wells containing AMP and 5% DMSO served as low control. Enzymatic reaction was stopped and AMP level was measured indirectly by adding 5 μL of CellTiter-Glo® 2.0 reagent and 5 μL of ATP with a final concentration of 1 μM. Following incubation of the plate at room temperature for 30 minutes, luminescent signal was read on a Tecan plate reader. The percentage inhibition at individual concentrations relative to high and low controls was calculated. The data were analyzed by using nonlinear regression to generate IC50 values.
In general terms: ATP-based viability assays read luminescence as a measure of living cells.

For experiment [2], the target named is T2, human CD73 (Homo sapiens, UniProt P21589).
T2 construct: expressed in transfected cells
T2 sequence (P21589 27-549): T1 sequence (P21589 27-549)
The experiment is described as follows: Inhibitor activity against CD73 in cell based assay (CD73 expressing CHO-K1 cells). Conditions: CHO-K1 cells expressing human CD73, 150 μM AMP, 4 hours of incubation; read-out: CHO-K1 CELL_VARIANT: CD73 IC50. The procedure: Determine Inhibitor Activity Against CD73 in Cell Based Assay
CD73 expressing CHO-K1 cell clones were generated upon stable transfection of a plasmid expressing human CD73 under the control of CMV promoter. Cells were selected in Ham's F-12K (Kaighn's) media supplemented with 10% fetal bovine serum and 1 mg/ml G418 at 37° C. in a humidified incubator supplied with 5% CO2. The assays were performed as follows. Cells were seeded in a 96 well plate in 50 μL of culture media at a density of 1×10^4 per well. Compound at a maximal concentration of 5 mM was serially diluted 1:3 in DMSO for a total of 8 point titration. A 2 μL aliquot of each dilution point was added to […] culture media and 25 µL was added to each well, providing 10 μM compound at the maximum concentration point. AMP was diluted in culture media and 25 μL was added to each well with a final concentration of 150 μM. 4 wells containing 0.2% DMSO treated cells and AMP served as high controls and 4 wells containing media only with 0.2% DMSO and AMP served as low controls. After 4 hours of incubation, 20 μL of the supernatant was transferred to a 384 well plate. AMP level in supernatant was measured indirectly by adding 5 μL of CellTiter-Glo® 2.0 reagent and 5 μL of ATP with a final concentration of 1 μM. Following incubation of plate at room temperature for 30 minutes, luminescent signal was read on a Tecan plate reader. The percentage inhibition at individual concentrations relative to high and low controls was calculated. The data were analyzed by using nonlinear regression to generate ICso values.

Each structure is given as a SMILES string.

A word on the IC50: it is the concentration at which inhibition is half-maximal.

`O=c1[nH]ncc(N2CC[C@@H](Oc3cc(-c4cnn(C5CCNCC5)c4)ccn3)C2)c1Cl` [P-0002, (R)-4-chloro-5-(3-((4-(1-(piperidin-4-yl)-1H-pyrazol-4-yl)pyridin-2-yl)oxy)pyrrolidin-1-yl)pyridazin-3(2H)-one]: the IC50 in experiment [1] and in experiment [2] was 0.001 to 10 µM throughout.

On to `CC(C)N1CCN(c2ccnc(O[C@@H]3CCN(c4cn[nH]c(=O)c4Cl)C3)c2)CC1` [P-0003, (R)-4-chloro-5-(3-((4-(4-isopropylpiperazin-1-yl)pyridin-2-yl)oxy)pyrrolidin-1-yl)pyridazin-3(2H)-one], for which the IC50 in experiment [1] and in experiment [2] was 0.001 to 10 µM in each case.

With `CN1C2CCC1CN(c1ccnc(O[C@@H]3CCN(c4cn[nH]c(=O)c4Cl)C3)c1)C2` [P-0004, 4-chloro-5-((3R)-3-((4-(8-methyl-3,8-diazabicyclo[3.2.1]octan-3-yl)pyridin-2-yl)oxy)pyrrolidin-1-yl)pyridazin-3(2H)-one], the IC50 in experiment [1] and in experiment [2] was 0.001 to 10 µM each time.

On to `CC1(CN2CCC(c3ccnc(O[C@@H]4CCN(c5cn[nH]c(=O)c5Cl)C4)c3)CC2)COC1` [P-0005, (R)-4-chloro-5-(3-((4-(1-((3-methyloxetan-3-yl)methyl)piperidin-4-yl)pyridin-2-yl)oxy)pyrrolidin-1-yl)pyridazin-3(2H)-one], for which the IC50 in experiment [1] and in experiment [2] was 0.001 to 10 µM throughout.

In the case of `Cc1nn(C(CO)CO)c(C)c1-c1cc(O[C@H]2CN(c3cnn(CCO)c(=O)c3Cl)C[C@@H]2F)ncc1F` [P-0006, 4-chloro-5-((3S,4S)-3-((4-(1-(1,3-dihydroxypropan-2-yl)-3,5-dimethyl-1H-pyrazol-4-yl)-5-fluoropyridin-2-yl)oxy)-4-fluoropyrrolidin-1-yl)-2-(2-hydroxyethyl)pyridazin-3(2H)-one], the IC50 in experiment [1] and in experiment [2] was 0.001 to 10 µM throughout.

`Cc1nn(C2COC2)c(C)c1-c1cc(O[C@H]2CN(c3cnn(CCO)c(=O)c3Cl)C[C@@H]2F)ncc1F` [P-0007, 4-chloro-5-((3S,4S)-3-((4-(3,5-dimethyl-1-(oxetan-3-yl)-1H-pyrazol-4-yl)-5-fluoropyridin-2-yl)oxy)-4-fluoropyrrolidin-1-yl)-2-(2-hydroxyethyl)pyridazin-3(2H)-one]: the IC50 in experiment [1] and in experiment [2] was 0.001 to 10 µM throughout.

In the case of `CN1CCC(c2ccnc(O[C@@H]3CCN(c4cn[nH]c(=O)c4Cl)C3)c2)CC1` [P-0008, (R)-4-chloro-5-(3-((4-(1-methylpiperidin-4-yl)pyridin-2-yl)oxy)pyrrolidin-1-yl)pyridazin-3(2H)-one], the concentration for half-maximal inhibition (IC50) in experiment [1] and in experiment [2] was 0.001 to 10 µM throughout.

As for `CC1CNCCC1c1ccnc(O[C@@H]2CCN(c3cn[nH]c(=O)c3Cl)C2)c1` (stereo partly drawn) [P-0009, 4-chloro-5-((3R)-3-((4-(3-methylpiperidin-4-yl)pyridin-2-yl)oxy)pyrrolidin-1-yl)pyridazin-3(2H)-one], the IC50 in experiment [1] and in experiment [2] was 0.001 to 10 µM in each case.

Turning to `CC(C)(O)CN1CCC(c2ccnc(O[C@@H]3CCN(c4cn[nH]c(=O)c4Cl)C3)c2)CC1` [P-0010, (R)-4-chloro-5-(3-((4-(1-(2-hydroxy-2-methylpropyl)piperidin-4-yl)pyridin-2-yl)oxy)pyrrolidin-1-yl)pyridazin-3(2H)-one], the IC50 in experiment [1] and in experiment [2] was 0.001 to 10 µM throughout.

As for `O=c1[nH]ncc(N2CC[C@@H](Oc3cc(C4CCN(CC(O)C(F)(F)F)CC4)ccn3)C2)c1Cl` (stereo partly drawn) [P-0011, 4-chloro-5-((3R)-3-((4-(1-(3,3,3-trifluoro-2-hydroxypropyl)piperidin-4-yl)pyridin-2-yl)oxy)pyrrolidin-1-yl)pyridazin-3(2H)-one], the IC50 in experiment [1] and in experiment [2] was 0.001 to 10 µM throughout.

On to `O=c1[nH]ncc(N2CC[C@@H](Oc3cc(C4CC5CCC(C4)N5)ccn3)C2)c1Cl` (stereo partly drawn) [P-0012, 5-((3R)-3-((4-(8-azabicyclo[3.2.1]octan-3-yl)pyridin-2-yl)oxy)pyrrolidin-1-yl)-4-chloropyridazin-3(2H)-one], for which the 50% inhibitory concentration (IC50) in experiment [1] and in experiment [2] was 0.001 to 10 µM in each case.

With `O=c1[nH]ncc(N2CC[C@@H](Oc3cc(N4CC5CCC(C4)N5)ccn3)C2)c1Cl` [P-0013, 5-((3R)-3-((4-(3,8-diazabicyclo[3.2.1]octan-3-yl)pyridin-2-yl)oxy)pyrrolidin-1-yl)-4-chloropyridazin-3(2H)-one], the IC50 in experiment [1] and in experiment [2] was 0.001 to 10 µM throughout.

As to `Cc1nn(CC(C)(C)O)c(C)c1-c1cc(O[C@@H]2CCN(c3cnn(CCO)c(=O)c3Cl)C2)ncn1` [P-0014, (R)-4-chloro-5-(3-((6-(1-(2-hydroxy-2-methylpropyl)-3,5-dimethyl-1H-pyrazol-4-yl)pyrimidin-4-yl)oxy)pyrrolidin-1-yl)-2-(2-hydroxyethyl)pyridazin-3(2H)-one], the IC50 in experiment [1] and in experiment [2] was 0.001 to 10 µM in each case.

`Cc1nn(CC(C)(C)O)c(C)c1-c1ccnc(O[C@H]2CN(c3cnn(CCO)c(=O)c3Cl)C[C@@H]2F)c1` [P-0015, 4-chloro-5-((3S,4S)-3-fluoro-4-((4-(1-(2-hydroxy-2-methylpropyl)-3,5-dimethyl-1H-pyrazol-4-yl)pyridin-2-yl)oxy)pyrrolidin-1-yl)-2-(2-hydroxyethyl)pyridazin-3(2H)-one]: the IC50 in experiment [1] and in experiment [2] was 0.001 to 10 µM throughout.

As to `O=C(CO)N1CCC(c2ccnc(O[C@@H]3CCN(c4cn[nH]c(=O)c4Cl)C3)c2)CC1` [P-0016, (R)-4-chloro-5-(3-((4-(1-(2-hydroxyacetyl)piperidin-4-yl)pyridin-2-yl)oxy)pyrrolidin-1-yl)pyridazin-3(2H)-one], the IC50 in experiment [1] and in experiment [2] was 0.001 to 10 µM throughout.

For the molecule `Cc1nn(CC(C)(C)O)c(C)c1-c1ccnc(O[C@@H]2CCN(c3cnn(CCO)c(=O)c3Cl)C2)c1` [P-0017, (R)-4-chloro-5-(3-((4-(1-(2-hydroxy-2-methylpropyl)-3,5-dimethyl-1H-pyrazol-4-yl)pyridin-2-yl)oxy)pyrrolidin-1-yl)-2-(2-hydroxyethyl)pyridazin-3(2H)-one], the IC50 in experiment [1] and in experiment [2] was 0.001 to 10 µM each time.

Regarding `O=c1[nH]ncc(N2CC[C@@H](Oc3cc(C4CCNC4)ccn3)C2)c1Cl` (stereo partly drawn) [P-0018, 4-chloro-5-((3R)-3-((4-(pyrrolidin-3-yl)pyridin-2-yl)oxy)pyrrolidin-1-yl)pyridazin-3(2H)-one], the IC50 in experiment [1] and in experiment [2] was 0.001 to 10 µM in each case.

As to `Cc1nn(C2COC2)c(C)c1-c1cc(O[C@@H]2CCN(c3cnn(CCO)c(=O)c3Cl)C2)ncc1F` [P-0020, (R)-4-chloro-5-(3-((4-(3,5-dimethyl-1-(oxetan-3-yl)-1H-pyrazol-4-yl)-5-fluoropyridin-2-yl)oxy)pyrrolidin-1-yl)-2-(2-hydroxyethyl)pyridazin-3(2H)-one], the IC50 in experiment [1] and in experiment [2] was 0.001 to 10 µM in each case.
